In patent publication US6358921B1, “Antimicrobial peptide compositions and method” (priority 1996, dated 2002):

Experiments:
P. aeruginosa H187 = type: cell-based, Pseudomonas aeruginosa; details: H187
From the text: (§1) The following bacterial strains were utilized: Escherichia coli UB1005 (wt) and its antibiotic supersusceptible derivative DC2 (Clark, 1984); Excherichia coli SC9251 and its polymixin B rasistant mutant pmrA SC9252 (Peterson, et al., 1987) Pseudomonas aeruginosa H187 (wt) (Angus, et al., 1987) and its antibiotic-sensitive derivative H188 (Zimmerman, W, Antimicrob. Agents Chemother. 18: 94-100, 1980); methicillin sensitive Staphylococcus aureus K147 (Kreiswirth, et al., 1983); Staphylococcus aureus SAP0017, a methicillin resistant clinical isolate from Dr. A. Chow (University of British Columia); Bacillus subtilis, an environmental wt lab strain. Enterococcus faecalis are ATCC 29212 cells and Staphylococcus epidermidis was a clinical isolate from Dr. D. Speert (University of British Columbia). Antifungal activity was tested using a clinical lab isolate of Candida albicans. Salmonella typhinurium C57 and C610 (Fields, P.I., et al., Science 243: 1059-1062 (1989) Corynebacterium xerosis was an environmental isolate (University of British Columbia).
(§2) It is now apparent that agar-based assays severely underestimate antifungal activity as well as activity against gram negative microorganisms (Kondejewski, et al., 1996). Consequently, in the studies reported herein, a liquid-broth method was used to measure the antibiotic properties of the peptides. […] Briefly, cells were grown overnight at 37° C. in LB and diluted in the same medium. Serial dilutions of antibiotics were added to the microtitre plates in a volume of 100 μL followed by 10 μL of bacteria to give a final inoculum of 5×10^5 CFU/mL. Plates were incubated at 37° C. overnight and MICs determined as the lowest antibiotic concentration that inhibited growth.
(§3) The results from antimicrobial and hemolytic assays are combined to provide a “Therapeutic Index” (TI) for each peptide with respect to individual microorganisms. As reported herein, the TI is calculated as the hemolytic activity divided by the antimicrobial activity. The TI thus is a measure of specificity of the particular peptide for microbial membranes as opposed to human blood cell membranes. In the present studies, antimicrobial activities are reported as minimum inhibitory concentrations (MIC)—the lowest concentration of peptide (μg/ml) found to inhibit growth of the particular microbe. Hemolytic activity is reported as the concentration of peptide that effected complete lysis of blood cells after four hours. Thus, in the context of the present invention high TI values indicate microbial specificity and relative lack of toxicity.

E. coli UB1005 = type: cell-based, Escherichia coli; details: UB1005
From the text: as §1
as §2, with “growth. […]” for “growth.”

E. coli DC2 = type: cell-based, Escherichia coli; details: DC2
From the text: as §1, §2, §3

S. typhinurium C587 = type: cell-based, Salmonella typhinurium
From the text: as §1
as §2, with “growth. […]” for “growth.”

S. typhinurium C610 = type: cell-based, Salmonella typhinurium
From the text: as §1
as §2, with “growth. […]” for “growth.”

S. aureus K147 = type: cell-based, Staphylococcus aureus
From the text: as §1, §2, §3

S. aureus SAP0017 = type: cell-based, Staphylococcus aureus
From the text: as §1, §2, §3

S. epidermidis = type: cell-based, Staphylococcus epidermidis
From the text: as §1
as §2, with “growth. […]” for “growth.”

B. subtilis = type: cell-based, Bacillus subtilis
From the text: as §1
as §2, with “growth. […]” for “growth.”

E. faecalis = type: cell-based, Enterococcus faecalis
From the text: as §1
as §2, with “growth. […]” for “growth.”

C. xeroses = type: cell-based, Corynebacterium xerosis
From the text: as §1
as §2, with “growth. […]” for “growth.”

C. Albicans = type: cell-based, Candida albicans
From the text: as §1
as §2, with “growth. […]” for “growth.”

[1] = Displacement of dansyl-polymyxin from LPS; type: binding, P. aeruginosa; details: read-out: LPS binding affinity: peptide concentration to displace 50% of dansyl-polymyxin B from LPS; Tables 1, 4, 7
From the text: In order to determine whether ring size affects the interaction between the peptide and bacterial membranes, we studied the interaction between the GS ring analogs and bacterial lipopolysaccharide (LPS). It has been shown previously that dansyl-polymixin (DPX) is a good probe for cationic binding sites on both purified LPS as well as whole bacterial cells (Example 8; Moore, et al., 1986; Sawyer, et al., 1988; Hancock, 1981). […] The LPS binding activity of various GS analogs was investigated, as discussed above.
Dansyl-polymixin (DPX) displacement from P. aeruginosa LPS was measured as described (Moore, et al., 1986). Briefly, peptides were titrated into cuvettes containing 3 μg of LPS per mL and 2.5 μM dansyl-polymixin (approximately 90% saturation of LPS binding sites) in 1 mL of 5 mM sodium HEPES buffer, pH 7.0, and the decrease in fluorescence recorded. A plot of the inverse of the percent inhibition as a function of the inverse of inhibitor concentration gave a value for I50, the inhibitor concentration resulting in 50% displacement of dansyl-polymixin from LPS (−1/× intercept).

P. aeruginosa H188 = type: cell-based, Pseudomonas aeruginosa; details: H188
From the text: as §1
as §2, with “growth. […]” for “growth.”

SMILES: CC(C)C[C@@H]1NC(=O)[C@H](CCCCN)NC(=O)[C@H](C(C)C)NC(=O)[C@@H]2CCCN2C(=O)[C@@H](Cc2ccc(O)cc2)NC(=O)[C@@H](CC(C)C)NC(=O)[C@H](CCCCN)NC(=O)[C@H](C(C)C)NC(=O)[C@H](CCCCN)NC(=O)[C@H](CC(C)C)NC(=O)[C@@H]2CCCN2C(=O)[C@@H](Cc2ccc(O)cc2)NC(=O)[C@H](C(C)C)NC(=O)[C@H](CCCCN)NC1=O [GS14L12]
- Minimum Inhibitory Concentration (activity) (P. aeruginosa H187): 200 µg/mL
- Minimum Inhibitory Concentration (activity) (E. coli UB1005): 17 µg/mL
- Minimum Inhibitory Concentration (activity) (E. coli DC2): 3.1 µg/mL
- Minimum Inhibitory Concentration (activity) (S. typhinurium C587): 150 µg/mL
- Minimum Inhibitory Concentration (activity) (S. typhinurium C610): 50 µg/mL
- Minimum Inhibitory Concentration (activity) (S. aureus K147): 100 µg/mL
- Minimum Inhibitory Concentration (activity) (S. aureus SAP0017): 50 µg/mL
- Minimum Inhibitory Concentration (activity) (S. epidermidis): 3.1 µg/mL
- Minimum Inhibitory Concentration (activity) (B. subtilis): 200 µg/mL
- Minimum Inhibitory Concentration (activity) (E. faecalis): 0.8 µg/mL
- Minimum Inhibitory Concentration (activity) (C. xeroses): 3.1 µg/mL
- Minimum Inhibitory Concentration (activity) (C. Albicans): 9 µg/mL
- IC50 [1]: 32 µM

SMILES: CC(C)C[C@@H]1NC(=O)[C@H](CCCCN)NC(=O)[C@H](C(C)C)NC(=O)[C@@H]2CCCN2C(=O)[C@@H](Cc2ccc(O)cc2)NC(=O)[C@H](CC(C)C)NC(=O)[C@H](CCCCN)NC(=O)[C@H](C(C)C)NC(=O)[C@H](CCCCN)NC(=O)[C@H](CC(C)C)NC(=O)[C@@H]2CCCN2C(=O)[C@@H](Cc2ccc(O)cc2)NC(=O)[C@@H](C(C)C)NC(=O)[C@H](CCCCN)NC1=O [GS14V5]
- Minimum Inhibitory Concentration (activity) (P. aeruginosa H187): 100 µg/mL
- Minimum Inhibitory Concentration (activity) (P. aeruginosa H188): 62 µg/mL
- Minimum Inhibitory Concentration (activity) (E. coli UB1005): 15 µg/mL
- Minimum Inhibitory Concentration (activity) (E. coli DC2): 3.1 µg/mL
- Minimum Inhibitory Concentration (activity) (S. typhinurium C587): 100 µg/mL
- Minimum Inhibitory Concentration (activity) (S. aureus K147): 100 µg/mL
- Minimum Inhibitory Concentration (activity) (S. aureus SAP0017): 50 µg/mL
- Minimum Inhibitory Concentration (activity) (S. epidermidis): 3.1 µg/mL
- Minimum Inhibitory Concentration (activity) (B. subtilis): 200 µg/mL
- Minimum Inhibitory Concentration (activity) (E. faecalis): 1.5 µg/mL
- Minimum Inhibitory Concentration (activity) (C. Albicans): 6.2 µg/mL
- IC50 [1]: 33 µM

SMILES: CC(C)C[C@@H]1NC(=O)[C@H](CCCCN)NC(=O)[C@H](C(C)C)NC(=O)[C@@H]2CCCN2C(=O)[C@@H](Cc2ccc(O)cc2)NC(=O)[C@H](CC(C)C)NC(=O)[C@H](CCCCN)NC(=O)[C@H](C(C)C)NC(=O)[C@H](CCCCN)NC(=O)[C@H](CC(C)C)NC(=O)[C@@H]2CCCN2C(=O)[C@H](Cc2ccc(O)cc2)NC(=O)[C@H](C(C)C)NC(=O)[C@H](CCCCN)NC1=O [GS14Y6]
- Minimum Inhibitory Concentration (activity) (P. aeruginosa H187): 200 µg/mL
- Minimum Inhibitory Concentration (activity) (P. aeruginosa H188): 50 µg/mL
- Minimum Inhibitory Concentration (activity) (E. coli UB1005): 50 µg/mL
- Minimum Inhibitory Concentration (activity) (E. coli DC2): 3.1 µg/mL
- Minimum Inhibitory Concentration (activity) (S. typhinurium C587): >200 µg/mL
- Minimum Inhibitory Concentration (activity) (S. typhinurium C610): 100 µg/mL
- Minimum Inhibitory Concentration (activity) (S. aureus K147): >200 µg/mL
- Minimum Inhibitory Concentration (activity) (S. aureus SAP0017): >200 µg/mL
- Minimum Inhibitory Concentration (activity) (S. epidermidis): 6.2 µg/mL
- Minimum Inhibitory Concentration (activity) (B. subtilis): >200 µg/mL
- Minimum Inhibitory Concentration (activity) (E. faecalis): 3.1 µg/mL
- Minimum Inhibitory Concentration (activity) (C. xeroses): 1 µg/mL
- IC50 [1]: 20 µM

SMILES: CC(C)C[C@@H]1NC(=O)[C@H](CCCCN)NC(=O)[C@H](C(C)C)NC(=O)[C@H](CCCCN)NC(=O)[C@H](CC(C)C)NC(=O)[C@@H]2CCCN2C(=O)[C@@H](Cc2ccc(O)cc2)NC(=O)[C@H](C(C)C)NC(=O)[C@H](CCCCN)NC(=O)[C@H](CC(C)C)NC(=O)[C@@H](CCCCN)NC(=O)[C@H](C(C)C)NC(=O)[C@@H]2CCCN2C(=O)[C@@H](Cc2ccc(O)cc2)NC1=O [GS14K2]
- Minimum Inhibitory Concentration (activity) (P. aeruginosa H187): 75 µg/mL
- Minimum Inhibitory Concentration (activity) (P. aeruginosa H188): 62 µg/mL
- Minimum Inhibitory Concentration (activity) (E. coli DC2): 3.1 µg/mL
- Minimum Inhibitory Concentration (activity) (S. typhinurium C587): 25 µg/mL
- Minimum Inhibitory Concentration (activity) (S. typhinurium C610): 3 µg/mL
- Minimum Inhibitory Concentration (activity) (S. aureus K147): 100 µg/mL
- Minimum Inhibitory Concentration (activity) (S. aureus SAP0017): 50 µg/mL
- Minimum Inhibitory Concentration (activity) (S. epidermidis): 6.2 µg/mL
- Minimum Inhibitory Concentration (activity) (B. subtilis): 50 µg/mL
- Minimum Inhibitory Concentration (activity) (E. faecalis): 1.5 µg/mL
- Minimum Inhibitory Concentration (activity) (C. xeroses): 0.8 µg/mL
- Minimum Inhibitory Concentration (activity) (C. Albicans): 6.2 µg/mL
- IC50 [1]: 50 µM

SMILES: CC(C)C[C@@H]1NC(=O)[C@H](CCCCN)NC(=O)[C@H](C(C)C)NC(=O)[C@H](CCCCN)NC(=O)[C@H](CC(C)C)NC(=O)[C@@H]2CCCN2C(=O)[C@@H](Cc2ccc(O)cc2)NC(=O)[C@H](C(C)C)NC(=O)[C@@H](CCCCN)NC(=O)[C@H](CC(C)C)NC(=O)[C@@H](CCCCN)NC(=O)[C@H](C(C)C)NC(=O)[C@@H]2CCCN2C(=O)[C@@H](Cc2ccc(O)cc2)NC1=O [GS14K2K4]
- Minimum Inhibitory Concentration (activity) (P. aeruginosa H187): 150 µg/mL
- Minimum Inhibitory Concentration (activity) (E. coli UB1005): 50 µg/mL
- Minimum Inhibitory Concentration (activity) (E. coli DC2): 6.2 µg/mL
- Minimum Inhibitory Concentration (activity) (S. typhinurium C587): 200 µg/mL
- Minimum Inhibitory Concentration (activity) (S. typhinurium C610): 25 µg/mL
- Minimum Inhibitory Concentration (activity) (S. aureus K147): >200 µg/mL
- Minimum Inhibitory Concentration (activity) (S. aureus SAP0017): >200 µg/mL
- Minimum Inhibitory Concentration (activity) (S. epidermidis): 100 µg/mL
- Minimum Inhibitory Concentration (activity) (B. subtilis): >200 µg/mL
- Minimum Inhibitory Concentration (activity) (E. faecalis): >200 µg/mL
- Minimum Inhibitory Concentration (activity) (C. xeroses): 9 µg/mL
- Minimum Inhibitory Concentration (activity) (C. Albicans): 200 µg/mL
- IC50 [1]: 120 µM

SMILES: CC(C)C[C@@H]1NC(=O)[C@@H](CCCCN)NC(=O)[C@H](C(C)C)NC(=O)[C@@H](CCCCN)NC(=O)[C@H](CC(C)C)NC(=O)[C@@H]2CCCN2C(=O)[C@@H](Cc2ccc(O)cc2)NC(=O)[C@H](C(C)C)NC(=O)[C@@H](CCCCN)NC(=O)[C@H](CC(C)C)NC(=O)[C@@H](CCCCN)NC(=O)[C@H](C(C)C)NC(=O)[C@@H]2CCCN2C(=O)[C@@H](Cc2ccc(O)cc2)NC1=O [GS14K2K4K9K11]
- Minimum Inhibitory Concentration (activity) (P. aeruginosa H187): >200 µg/mL
- Minimum Inhibitory Concentration (activity) (E. coli UB1005): 100 µg/mL
- Minimum Inhibitory Concentration (activity) (E. coli DC2): 50 µg/mL
- Minimum Inhibitory Concentration (activity) (S. typhinurium C587): >200 µg/mL
- Minimum Inhibitory Concentration (activity) (S. typhinurium C610): 25 µg/mL
- Minimum Inhibitory Concentration (activity) (S. aureus K147): >200 µg/mL
- Minimum Inhibitory Concentration (activity) (S. aureus SAP0017): >200 µg/mL
- Minimum Inhibitory Concentration (activity) (S. epidermidis): >200 µg/mL
- Minimum Inhibitory Concentration (activity) (B. subtilis): >200 µg/mL
- Minimum Inhibitory Concentration (activity) (E. faecalis): >200 µg/mL
- Minimum Inhibitory Concentration (activity) (C. xeroses): 25 µg/mL
- Minimum Inhibitory Concentration (activity) (C. Albicans): >200 µg/mL
- IC50 [1]: 200 µM
